The values below come from patent US5158963A, “1-4-dihydropyridine derivative, process for preparing the same and pharmaceutical composition containing the same” (Kaken Pharmaceutical Co., Ltd., priority 1989, dated 1992).

Entries after “also recorded” stand apart in the source; their conditions may differ.

Data set [1] deals with tonic extensive convulsion (maximal electroshock-induced seizures). The data set is described as follows: Activity against maximal electroshock-induced seizures in mice. The class given is in vivo, mouse (Slc:ddy male mice). The note with it: oral. An excerpt:
In each group six Slc: ddy male mice weighing 26 to 31 g (5 weeks) were employed. Sixty minutes after oral administration of a test compound, corneal electrodes which were wet by physiological saline were contacted with both eyes of a mouse. Then, appearance of tonic extensive convulsion (TE) caused by electrifying under a stimulation condition of 50 mA, 1000 V and 0.2 sec by means of the apparatus of Woodburg & Davenport (made by Kyoto Keisokuki) was judged as indication.
Each of diphenylhydantoin, the compounds Nos. 2, 4, 5, 6, 7, 50, 51 and 52 of the present invention (refer Table 1, hereinafter the same) and nimodipine was suspended in a 0.5% solution of methyl cellulose to subject the test. Flunarizine was suspended in a 5% solution of gum arabic to subject the test.
(In general: Protection in the maximal electroshock model is a classic sign of anticonvulsant action.)

The subject of data set [2] is immobility time of forced swimming test. The experiment in a line: Activity against immobility time of forced swimming test in mice. It is filed as in vivo, mouse (Slc:ICR male mice). Particulars: oral. Here is the method: In each group 6 Slc:ICR male mice weighing 25 to 32 g (5 weeks) were bred at the room temperature of 22° to 24° C. under an environment of 60% humidity for 1 week, and then the bred mice were subjected to the following test. The test was carried out by monitering action to voluntarily escape with TV camera when a mouse was put into a cylinder of which inner diameter was 11 cm wherein 17 cm of water being the temperature 25° C. as added. As indication immobility time for 6 minutes was measured. In the test mice were employed which were compulsorily swun for 6 minutes in once per day for continuous 3 day. The investigation for immobility time was carried out by measuring immobility time for 6 minutes 1 hour after oral administration of a test compound. Each of test compound was suspended in a 0.5% solution of methyl cellulose used as a control group. Significant difference is shown with the significance level (* : p<0.05) obtained by comparing data of control group by LSD method.

Data set [3] deals with tonic extensive convulsion caused by pentylenetetrazole. The data set is described as follows: Activity against convulsion caused by pentylenetetrazole in mice. It is filed as in vivo, mouse (Slc:ddy male mice). The note with it: oral. Here is the method: In each group 4-8 Slc:ddy male mice weighing 24 to 32 g (5 weeks) were bred at room temperature of 22° to 24° C. under an environment of 60% humidity for 1 week, and then the bred mice were subjected to the following test. The test was carried out as the following procedure. One hour after the oral administration of a test compound, 40 mg/kg of pentylenetetrazole was administered in a caudal vein. Appearance of tonic extensive convulsion caused by pentylenetetrazole was measured as indication, and anticonvulsive activity was examined. Each of test compound was suspended in a 0.5% solution of methyl cellulose used as a control group.

The next data set concerns blood pressure. The data set is described as follows: Activity for blood pressure in rats. It is filed as in vivo, rat (Wister male rats). Particulars: oral; for Blood pressure: 100 mg/kg. Here is the method:
In each group 4 Wister male rats weighing 200 to 300 g (10 to 15 weeks) were employed. The day before a test, rats were anesthetized with eter, and a polyethylene tube was inserted into aorta abdominalis of a rat. The other end of the polyethylene tube was led out of the rat's body. The led polyethylene tube was connected with a pressure transducer (RM-85, made by Yamamoto Kohden). Blood pressure was measured under a condition of no restriction.

In data set [4] the test system is decapitation induced hypoxia. The data set is described as follows: Activity against decapitation induced hypoxia in mice. The note with it: oral; for inhibition in vivo at 10 mg/kg / inhibition in vivo at 30 mg/kg: Mus musculus, 1 h, 60 min before decapitation, duration of gasping vs control, read-out: Inhibition rate. The class given is in vivo, mouse (Slc:ddy male mice). Here is the method: In each group five Slc:ddy male mice weighing 20 to 22 g (4 weeks) were employed. Sixty minutes after oral administration of a test compound, mice were decapitated with a guillotine. After the decapitation, duration of gasping of head was measured with a timer (CT-916 Type, made by HATTORI SEIKO CO., LTD.) gearing into the guillotine.
Each of test compound was suspended in a 0.5% solution of methyl cellulose and administered. Inhibition rate was calculated by comparing with a 0.5% aqueous solution of methyl cellulose as control. That is, the inhibition rate was calculated by the following formula. [formula]

The next data set can be described thus: Acute toxicity in mice. The note with it: in vivo; mouse, oral administration, death rate after 7 days. On the set-up: species or system mouse (Slc:ddy male mice). Here is the method:
The compound No. 2 of the present invention was orally administered to 5-15 in each group Slc:ddy male mice weighing 24 to 32 g (5 weeks). With death rate after 7 days value of acute toxicity was measured.

The conditions of data set [5]: administered over an extended period of time; cited from earlier work.

In the case of `C#Cc1cccc(C2C(C(=O)OCC)=C(C)NC(C)=C2C(=O)OCC)c1` [Compound No. 2, 3,5-Diethoxycarbonyl-1,4-dihydro-2,6-dimethyl-4-(3ethynylphenyl)pyridine], the figures for the “inhibitory activity against tonic extensive convulsion (share of cases)” value (from here on “inhibitory activity … (share of cases)”) in data set [1] (100 mg/kg) and in data set [1] (200 mg/kg) were “two thirds” and “all cases”, respectively. Also, the “effect on the immobility time (in words)” value in data set [2] (100 mg/kg) is listed as “showed the effect on the immobility time”. Besides, the “effect on immobility time of forced swimming test (in words)” value in data set [2] is recorded as “immobility time of forced swimming test reduced”. Moreover, in data set [3], the “effect on tonic extensive convulsion caused by pentylenetetrazole (in words)” value is “inhibited the tonic extensive convulsion; also recorded: approximately the same extent of the effect of the positive control drug diphenylhydantoin; also recorded: stronger effect than the effect of nimodipine and the effect of nicardipine”. Further, the Blood pressure is reported as 100.6 mmHg in the data set with blood pressure (after 15 min.), 98.4 mmHg in the data set with blood pressure (after 30 min.), 94.8 mmHg in the data set on blood pressure (after 60 min.) and 92.9 mmHg in the data set with blood pressure (after 120 min.). The “activity for decreasing blood pressure (in words)” value with blood pressure (normal rats) is listed as “very weak activity for decreasing blood pressure”. Further, the inhibition in vivo at 10 mg/kg in data set [4] was determined as 10.8%. The inhibition in vivo at 30 mg/kg in data set [4] is 20.5%. The “effect in decapitation induced hypoxia (in words)” value in data set [4] is “same extent effect as that of flunarizine; also recorded: stronger effect than that of nimodipine and that of nicardipine”. Further, the LD50 (commonly the dose at which mortality reaches 50%) at 168 h in the data set “Acute toxicity in mice” worked out at 534 mg/kg.
Regarding `Fc1ccc(C(c2ccc(F)cc2)N2CCN(C/C=C/c3ccccc3)CC2)cc1` [Flunarizine, reference compound], the “inhibitory activity … (share of cases)” value in data set [1] (100 mg/kg) was “a third”. The “inhibitory activity … (share of cases)” value in data set [1] (200 mg/kg) is “five sixths”. Besides, the “effect on immobility time of forced swimming test (in words)” value in data set [2] is reported as “ineffective; also recorded: no effect”. For the same compound, in data set [4], the inhibition in vivo at 10 mg/kg is 12.1% and the inhibition in vivo at 30 mg/kg is 24.3%. For the same compound, in data set [5], the “side effects caused by central nervous system inhibitory activity” value is “Parkinson symptom and depression symptom”.
